Data published in patent US8461328B2, “Tricyclic heterocyclic compounds, compositions and methods of use thereof” (Genentech, Inc., priority 2010, dated 2013).
pKi: −log10 of the molar value.

Columns and labels:
Type in all cases: biochemical
TYK2 = biological target: T1, TYK2 (Homo sapiens, UniProt P29597); test: TYK2 inhibition (Table 4)
T1 construct: made in house; host or cells: SF9 insect cells (baculovirus)
T1 sequence (P29597 873-1187): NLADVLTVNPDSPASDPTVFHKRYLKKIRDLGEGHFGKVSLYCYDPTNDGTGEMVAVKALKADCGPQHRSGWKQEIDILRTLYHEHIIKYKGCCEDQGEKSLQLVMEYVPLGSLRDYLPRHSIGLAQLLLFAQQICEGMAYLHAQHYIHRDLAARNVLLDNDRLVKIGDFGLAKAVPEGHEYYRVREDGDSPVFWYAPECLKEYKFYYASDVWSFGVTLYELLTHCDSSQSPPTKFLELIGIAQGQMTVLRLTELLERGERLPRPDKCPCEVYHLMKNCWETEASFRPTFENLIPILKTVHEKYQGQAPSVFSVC

JAK1 = biological target: T2, JAK1 (Homo sapiens, UniProt P23458); test: JAK1 inhibition (Table 4); settings: read-out: JAK1 Ki
T2 construct: made in house; host or cells: SF9 insect cells (baculovirus)
T2 sequence (P23458 852-1154): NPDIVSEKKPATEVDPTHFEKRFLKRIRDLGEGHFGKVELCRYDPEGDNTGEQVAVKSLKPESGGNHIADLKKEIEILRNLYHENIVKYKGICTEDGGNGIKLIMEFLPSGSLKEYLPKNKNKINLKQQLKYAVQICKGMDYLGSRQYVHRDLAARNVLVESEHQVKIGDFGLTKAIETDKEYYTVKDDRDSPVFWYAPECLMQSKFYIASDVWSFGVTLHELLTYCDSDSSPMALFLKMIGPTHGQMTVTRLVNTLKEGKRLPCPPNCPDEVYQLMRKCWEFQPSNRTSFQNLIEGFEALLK

JAK2 = biological target: T3, JAK2 (Homo sapiens, UniProt O60674); test: JAK2 inhibition (Table 4); settings: read-out: JAK2 Ki
T3 construct: made in house; host or cells: SF9 insect cells (baculovirus)
T3 sequence (O60674 812-1132): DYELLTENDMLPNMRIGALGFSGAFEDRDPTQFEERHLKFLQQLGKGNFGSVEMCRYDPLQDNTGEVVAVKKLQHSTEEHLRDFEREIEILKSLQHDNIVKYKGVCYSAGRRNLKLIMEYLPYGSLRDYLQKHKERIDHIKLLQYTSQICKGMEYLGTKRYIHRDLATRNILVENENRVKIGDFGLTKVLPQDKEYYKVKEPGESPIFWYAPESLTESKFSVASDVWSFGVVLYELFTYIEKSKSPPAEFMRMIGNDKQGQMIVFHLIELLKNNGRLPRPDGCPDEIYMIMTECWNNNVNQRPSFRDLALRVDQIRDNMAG

JAK3 = biological target: T4, JAK3 (Homo sapiens, UniProt P52333); test: JAK3 inhibition (Table 4); settings: read-out: JAK3 Ki
T4 construct: made in house; host or cells: SF9 insect cells (baculovirus)
T4 sequence (P52333 783-1124): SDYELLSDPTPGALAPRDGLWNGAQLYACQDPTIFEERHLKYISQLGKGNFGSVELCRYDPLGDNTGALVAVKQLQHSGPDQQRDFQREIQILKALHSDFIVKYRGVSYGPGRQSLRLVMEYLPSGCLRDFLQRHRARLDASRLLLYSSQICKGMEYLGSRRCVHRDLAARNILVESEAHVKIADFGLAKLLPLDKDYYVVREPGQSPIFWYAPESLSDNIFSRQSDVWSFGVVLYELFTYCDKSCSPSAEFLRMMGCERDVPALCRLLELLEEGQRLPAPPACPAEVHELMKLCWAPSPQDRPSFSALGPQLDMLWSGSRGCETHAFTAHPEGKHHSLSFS

SMILES | pKi (TYK2) | pKi (JAK1) | pKi (JAK2) | pKi (JAK3)
Cc1nc2cnc3[nH]ccc3c2n1[C@@H](C)CO [Example 422, (S)-2-(2-Methyl-6H-1,3,5,6-tetraaza-as-indacen-1-yl)-propan-1-ol] | 5.91 | 6.85 | 6.42 | 6.51
Cc1nc2cnc3[nH]ccc3c2n1C1CCOC(C)(C)C1 (centres unmarked) [Example 178, 1-(2,2-Dimethyl-tetrahydro-pyran-4-yl)-2-methyl-1,6-dihydro-1,2,3,5,6-tetraaza-as-indacene] | 6.98 | 7.13 | 7.65 | 7.79
C[C@@H](O)c1nc2cnc3[nH]ccc3c2n1C1CCCC(C#N)C1 (mixture of isomers) [Example 648, Racemic cis 3-[2-((R)-1-Hydroxy-ethyl)-6H-1,2,3,5,6-tetraaza-as-indacen-1-yl]-cyclohexanecarbonitrile] | 7.57 | 8.22 | 7.14 | 6.92
N#CCCN1CCC(n2c(Cc3cccnc3)nc3cnc4[nH]ccc4c32)CC1 [Example 403, 3-[4-(2-Pyridin-3-ylmethyl-6H-1,3,5,6-tetraaza-as-indacen-1-yl)-piperidin-1-yl]-propionitrile] | 6.99 | 7.99 | 7.72 | 7.62
N#CCCN1CCC(n2c(CCn3cccn3)nc3cnc4[nH]ccc4c32)CC1 [Example 414, 3-{4-[2-(2-Pyrazol-1-yl-ethyl)-6H-1,3,5,6-tetraaza-as-indacen-1-yl]-piperidin-1-yl}-propionitrile] | 6.86 | 7.75 | 7.25 | 6.81
C[C@]1(O)CC[C@H](n2nnc3cnc4[nH]ccc4c32)CC1 [Example 713, Trans-1-Methyl-4-(6H-1,2,3,5,6-pentaaza-as-indacen-1-yl)-cyclohexanol] | 7.20 | 8.09 | 7.82 | 6.69
CO[C@H](C)c1nc2cnc3[nH]ccc3c2n1C1CCCCC1 [Example 685, 1-Cyclohexyl-2-((R)-1-methoxy-ethyl)-1,6-dihydro-1,2,3,5,6-tetraaza-as-indacene] | 6.90 | 7.43 | 6.94 | 7.46
Cc1nc2cnc3[nH]ccc3c2n1C1CCN(Cc2ccccc2)CC1(F)F (racemic) [Example 428, 1-(1-Benzyl-3,3-difluoro-piperidin-4-yl)-2-methyl-1,6-dihydro-1,3,5,6-tetraaza-as-indacene] | 7.90 | 9.19 | 9.11 | 8.79
CCN1CCC(n2c(CO)nc3cnc4[nH]ccc4c32)C(F)(F)C1 (racemic) [Example 941, [1-(1-Ethyl-3,3-difluoro-piperidin-4-yl)-1,6-dihydro-1,3,5,6-tetraaza-as-indacen-2-yl]-methanol] | 7.83 | 8.74 | 7.98 | 8.22
Cc1n[nH]c(C)c1CCc1nc2cnc3[nH]ccc3c2n1C1CCOCC1 [Example 471, 2-[2-(3,5-Dimethyl-1H-pyrazol-4-yl)-ethyl]-1-(tetrahydro-pyran-4-yl)-1,6-dihydro-1,3,5,6-tetraaza-as-indacene] | 6.10 | 6.56 | 6.11 | 6.14
CCS(=O)(=O)NCc1nc2cnc3[nH]ccc3c2n1C1CCN(CCC#N)CC1 [Example 504] | 6.93 | 8.11 | 7.59 | 7.27
COCCN1CC[C@H](n2c([C@@H](C)O)nc3cnc4[nH]ccc4c32)C(F)(F)C1 [Example 1013, (R)-1-{1-[(S)-3,3-Difluoro-1-(2-methoxy-ethyl)-piperidin-4-yl]-1,6-dihydro-1,3,5,6-tetraaza-as-indacen-2-yl}-ethanol] | 7.95 | 8.67 | 7.95 | 7.54
N#CCCN1CCC(n2c(Cc3cccc(C#N)c3)nc3cnc4[nH]ccc4c32)CC1 [Example 405, 3-{1-[1-(2-Cyano-ethyl)-piperidin-4-yl]-1,6-dihydro-1,3,5,6-tetraaza-as-indacen-2-ylmethyl}-benzonitrile] | 6.35 | 7.51 | 6.60 | 6.28
N#Cc1cccc(CNC2CC(n3cnc4cnc5[nH]ccc5c43)C2)c1 (centres unmarked) [Example 329, 3-{[3-(6H-1,3,5,6-Tetraaza-as-indacen-1-yl)-cyclobutylamino]-methyl}-benzonitrile] | 6.64 | 7.78 | 7.38 | 6.76
C[C@@H](O)c1nc2cnc3[nH]ccc3c2n1C1CCN(CC(F)F)CC1 [Example 916, (R)-1-{1-[1-(2,2-Difluoro-ethyl)-piperidin-4-yl]-1,6-dihydro-1,3,5,6-tetraaza-as-indacen-2-yl}-ethanol] | 7.11 | 8.17 | 7.28 | 7.20
Cc1nc2cnc3[nH]ccc3c2n1C1CCC(NC(=O)N(C)CC(F)(F)F)C1 (racemic) [Example 736, 1-Methyl-3-[3-(2-methyl-6H-1,3,5,6-tetraaza-as-indacen-1-yl)-cyclopentyl]-1-(2,2,2-trifluoro-ethyl)-urea] | 7.24 | 8.89 | 8.19 | 9.10
CCOC(=O)NCCc1nc2cnc3[nH]ccc3c2n1C1CCN(CC)CC1(F)F (centres unmarked) [Example 678, {2-[1-(1-Ethyl-3,3-difluoro-piperidin-4-yl)-1,6-dihydro-1,2,3,5,6-tetraaza-as-indacen-2-yl]-ethyl}-carbamic acid ethyl ester] | 6.56 | 8.40 | 7.50 | 7.63
O=C(NC1CCC(n2cnc3cnc4[nH]ccc4c32)CC1)c1cccnc1 (centres unmarked) [Example 884, N-[4-(6H-1,3,5,6-Tetraaza-as-indacen-1-yl)-cyclohexyl]-nicotinamide] | 7.36 | 8.29 | 8.19 | 7.06
CC1(O)CCC(n2cnc3cnc4[nH]ccc4c32)CC1 (stereo not drawn) [Example 993, Cis-1-Methyl-4-(6H-1,3,5,6-tetraaza-as-indacen-1-yl)-cyclohexanol] | 8.15 | 8.78 | 8.40 | 7.62
C[C@@H](O)c1nc2cnc3[nH]ccc3c2n1[C@H]1CC[C@H](N(C)CCC#N)CC1 [Example 616, Trans 3-({4-[2-((R)-1-hydroxy-ethyl)-6H-1,2,3,5,6-tetraaza-as-indacen-1-yl]-cyclohexyl}-methyl-amino)-propionitrile] | 7.92 | 8.35 | 7.70 | 7.07
CS(=O)(=O)N1CCC(n2c(CC3CCCC3)nc3cnc4[nH]ccc4c32)CC1 [Example 115, 2-Cyclopentylmethyl-1-(1-methanesulfonyl-piperidin-4-yl)-1,6-dihydro-1,2,3,5,6-tetraaza-as-indacene] | 6.81 | 6.49 | 6.13 | 6.26
CN(CC(F)(F)F)C(=O)NC1CCC(n2cnc3cnc4[nH]ccc4c32)CC1 (centres unmarked) [Example 745, 1-methyl-3-[4-(6H-1,3,5,6-tetraaza-as-indacen-1-yl)-cyclohexyl]-1-(2,2,2-trifluoro-ethyl)-urea] | 6.95 | 8.49 | 7.94 | 7.43
Cc1nc2cnc3[nH]ccc3c2n1C1CCCCNC1 (racemic) [Example 987, 1-Azepan-3-yl-2-methyl-1,6-dihydro-1,3,5,6-tetraaza-as-indacene] | 6.57 | 7.40 | 6.68 | 6.19
C[C@@H](O)c1nc2cnc3[nH]ccc3c2n1[C@H]1CCCOC1 [Example 199, (R)-1-[(S)-1-(Tetrahydro-pyran-3-yl)-1,6-dihydro-1,2,3,5,6-tetraaza-as-indacen-2-yl]-ethanol] | 7.56 | 8.60 | 7.17 | 6.96
C[C@@H](O)c1nc2cnc3[nH]ccc3c2n1N1CCCCC1 [Example 882, (R)-1-(1-Piperidin-1-yl-1,6-dihydro-1,3,5,6-tetraaza-as-indacen-2-yl)-ethanol] | 7.98 | 8.45 | 7.29 | 7.14
CC(O)c1nc2cnc3[nH]ccc3c2n1C1CCN(Cc2csc(C(F)(F)F)n2)CC1 (racemic) [Example 351, 1-{1-[1-(2-Trifluoromethyl-thiazol-4-ylmethyl)-piperidin-4-yl]-1,6-dihydro-1,3,5,6-tetraaza-as-indacen-2-yl}-ethanol] | 6.55 | 8.31 | 7.53 | 7.50
CC(C)(C)OC(=O)NC1CC(n2cnc3cnc4[nH]ccc4c32)C1 (centres unmarked) [Example 317, [3-(6H-1,3,5,6-Tetraaza-as-indacen-1-yl)-cyclobutyl]-carbamic acid tert-butyl ester] | 7.02 | 8.54 | 8.24 | 7.43
N#Cc1ccc(S(=O)(=O)N2CCC(n3cnc4cnc5[nH]ccc5c43)CC2)cc1 [Example 56, 4-[4-(6H-1,3,5,6-Tetraaza-as-indacen-1-yl)-piperidine-1-sulfonyl]benzonitrile] | 7.19 | 8.42 | 8.00 | 6.47
N#CCCN1CCC(n2c(CC3CCCO3)nc3cnc4[nH]ccc4c32)CC1 (centres unmarked) [Example 813, 3-{4-[2-(Tetrahydro-furan-2-ylmethyl)-6H-1,3,5,6-tetraaza-as-indacen-1-yl]-piperidin-1-yl}-propionitrile] | 6.44 | 7.68 | 7.37 | 7.40
